Like-named read-outs stand apart in the source and are kept apart here.

Series [1] addresses REF Human STING (Homo sapiens, UniProt Q86WV6). As to the kind of experiment: STING variant specific reporter assay, REF-STING (THP1-Dual KO-STING cells).
For series [2], the target named is WT Human STING (Homo sapiens, UniProt Q86WV6, H232R). Briefly: STING variant specific reporter assay, WT-STING (THP1-Dual KO-STING cells). The settings on record: Human STING EC50 (μM) WT, ammonium salt form of each compound. (In general: Reporter assays use an easily measured gene product as a stand-in for the process of interest.)
Series [3] concerns the target Human STING HAQ (Homo sapiens, UniProt Q86WV6, G230A/H232R/R293Q/R71H). As to the kind of experiment: HAQ STING agonist activity reporter assay (THP1-Dual cells).
In series [4] the target is AQ Human STING (Homo sapiens, UniProt Q86WV6, G230A/H232R/R293Q). Briefly: STING variant specific reporter assay, AQ-STING (THP1-Dual KO-STING cells). To be noted: ammonium salt form of each compound.
Series [5] relates to hepatocytes of Beagle dog. As to the kind of experiment: Hepatocyte incubation, metabolite identification, dog. Type of series: in vitro ADME. The settings on record: LC-MS/MS. The text has this: (§1) Cryopreserved pooled hepatocytes were purchased from ThermoFisher Scientific (Waltham, Mass.), Xenotech, LLC (Kansas City, Kans.) and In Vitro ADMET Laboratories (Columbia, Md.), and the appropriate media were purchased from In Vitro ADMET Laboratories (Columbia, Md.) and Life Technologies (Carlsbad, Calif.). AOPI staining solution and phosphate buffer were obtained from Corning Life Sciences (Tewksbury, Mass.) and Nexcelom Bioscience (Lawrence, Mass.), respectively. All chemicals, reagents, and solvents used in analysis were of either analytical or HPLC grade.
(§2) Prior to incubations, the cryopreserved hepatocytes were thawed in a water bath at 37° C. One tube of cryopreserved hepatocytes was added to each 50-mL conical tube of cryopreserved hepatocyte recovery medium (UCRM) obtained from In Vitro ADMET Laboratories (Columbia, Md.). The cells were spun in a Beckman centrifuge (Brea, Calif.) with a GH 3.8 rotor at 740 rpm for 10 minutes at room temperature 4° C. […] The solution was gently mixed and cells were counted using a Cellometer (Nexcelom, Lawrence, Mass.). […]
(§3) The LC-MS/MS system was composed of a Shimadzu HPLC and an AB-SCIEX TripleTOF 5600 hybrid quadrupole and TOF mass spectrometer (Framingham, Mass.). […] The samples obtained from incubations with hepatocytes were analyzed under both negative and positive scan modes. […]

For series [6], the system named is hepatocytes of Sprague Dawley rat. As to the kind of experiment: Hepatocyte incubation, metabolite identification, rat. To be noted: LC-MS/MS. The class given is in vitro ADME.
From the text: as §1, §2, §3

For series [7], the system named is CT26 tumor. As to the kind of experiment: CT26 dual tumor model. The settings on record: all the lower doses (0.6-5 mg/kg), I.T., single dose.
Experimental: For study B, treatment was started 8 days (0.6 mg/kg, and 10 mg/kg) after the tumor implantation, when the average tumors reached approximately 120 mm^3.
All the mice in the study have two subcutaneous CT26 tumors. The “treated tumor” indicates the tumor with compound direct administration, while “untreated tumor” indicates the tumor without direct compound administration. Tumor volume was followed throughout the experiment. Tumor volume is measured two times weekly after the start of treatment. Tumor burden is calculated from caliper measurements by the formula for the volume of a prolate ellipsoid (L×W^2)/2 where L and W are the respective orthogonal length and width measurements (mm).
Series [8] deals with hepatocytes of human. As to the kind of experiment: Hepatocyte incubation, metabolite identification, human. Type of series: in vitro ADME. To be noted: LC-MS/MS.
From the text: as §1, §2, §3

Series [9] deals with hepatocytes of Cynomolgus monkey. Briefly: Hepatocyte incubation, metabolite identification, monkey. The settings on record: LC-MS/MS. Type of series: in vitro ADME.
From the text: as §1, §2, §3

Series [10] relates to human PBMC. As to the kind of experiment: Ex vivo human PBMC stimulation assay, IFNβ protein. The settings on record: 0.1, 1, 10 uM, 24 hours. Type of series: cell-based. Here is the method: After 24 hours of incubation the tubes were centrifuged at 1400 rpm for 5 minutes and supernatants were harvested. Supernatant were stored in −80° C. for subsequent IFNβ measurement. IFNβ measurement was done using Human IFN-β Base Kit (Meso Scale Diagnostics cat # K151ADA) and protocol provided by manufacturer was used. IFN-beta estimation was done by reading assay plate at MESO SECTOR Imager 2400 and using MSD Discovery Workbench 4.0 program. After 24 hours IFNβ protein was analyzed.
Results shown in Table 10 reflect an average of measurements conducted using five different donors.

For series [11], the system named is hepatocytes of CD-1 mouse. As to the kind of experiment: Hepatocyte incubation, metabolite identification, mouse. The class given is in vitro ADME. The settings on record: LC-MS/MS.
From the text: as §1, §2, §3

The subject of series [12] is human PBMC. Briefly: Ex vivo human PBMC stimulation assay, IFNβ mRNA (qPCR). The settings on record: 0.1-10 μM, 3 hr and 24 hr.
Experimental: For IFNβ mRNA quantification, total RNA was isolated using the RNeasy Mini Kit (Qiagen, Germany) according to the manufacturer's protocol. IFNβ mRNA was quantified by qPCR assay. In brief, total RNA (400 ng to 1000 ng) was converted to cDNA in a 60-μl reaction volume using SuperScript VILO MasterMix (Life Technologies, USA). Obtained cDNAs (10 ng) were subsequently amplified using Applied Biosystems TaqMan expression assays using RNA-specific primers for IFNB1 (Hs01077958_s1), and GAPDH (Hs99999905_m1). A qPCR analysis was performed with TaqMan Fast Advanced Master Mix (Life Technologies, USA) on the Applied Biosystems Quantstudio 12K Flex Real-Time PCR System, with an initial 2-min step at 50° C. followed by 95° C. for 2 s and 40 cycles of 95° C. for 1 s and 60° C. for 20 s. Relative gene expression was calculated after normalization against the reference gene GAPDH using the 2-ΔΔCT method. Calculations were done using the Applied Biosystems Quantstudio 12K Flex software v1.2.2.
The mark [13] stands for this setting: Human STING EC50 (μM) HAQ, Table 4, ammonium salt form of each compound, 20 hrs.
The mark [14] stands for this setting: Human STING EC50 (μM) AQ, Table 4.
[15] abbreviates: Human STING EC50 (μM) HAQ, Table 5, ammonium salt form of each compound, 20 hrs.
Setting [16] is: Human STING EC50 (μM) AQ, Table 5.
Where [17] appears, read: hSTING EC50 (μM) HAQ, Table 6, ammonium salt form, except Compounds 26, 33, 34 tested as bis-TEA salts.

Chain of Human STING HAQ (Q86WV6 whole entry R71H/G230A/H232R/R293Q): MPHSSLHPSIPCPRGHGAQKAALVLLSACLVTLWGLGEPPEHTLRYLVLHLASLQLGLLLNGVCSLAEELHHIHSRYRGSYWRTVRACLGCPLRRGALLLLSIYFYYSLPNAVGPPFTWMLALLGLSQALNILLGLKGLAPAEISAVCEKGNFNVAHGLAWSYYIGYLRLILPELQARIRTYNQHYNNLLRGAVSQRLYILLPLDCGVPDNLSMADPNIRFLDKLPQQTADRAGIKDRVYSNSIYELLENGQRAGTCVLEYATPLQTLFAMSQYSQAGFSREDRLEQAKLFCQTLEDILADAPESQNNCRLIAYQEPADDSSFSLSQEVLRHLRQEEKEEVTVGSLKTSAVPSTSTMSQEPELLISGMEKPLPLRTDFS
Chain of WT Human STING (Q86WV6 whole entry H232R): as the sequence (Q86WV6 whole entry R71H/G230A/H232R/R293Q) above, with H71R, A230G, Q293R counted along it
Chain of AQ Human STING (Q86WV6 whole entry G230A/H232R/R293Q): as the sequence (Q86WV6 whole entry R71H/G230A/H232R/R293Q) above, with H71R counted along it
Chain of REF Human STING (Q86WV6 whole entry): as the sequence (Q86WV6 whole entry R71H/G230A/H232R/R293Q) above, with H71R, A230G, R232H, Q293R counted along it

With `O=[P@]1(S)OC[C@H]2OC3[C@H](F)[C@@H]2O[P@](=O)(S)OC[C@H]2O[C@H]([C@H](O1)[C@@H]2O)n1cnc2c(ncnc21)NC/C=C/CNc1ncnc2c1ncn23` [Compound 15], the EC50 in series [1] was 66.7 µM; in [2] (Table 4), 11.6 µM; in series [3] (setting [13]), 24.7 µM; in series [4] (setting [14]), 13.1 µM.
For `O=P1(S)OC[C@H]2O[C@@H]3[C@H](F)[C@@H]2OP(=O)(S)OC[C@H]2OC([C@H](F)[C@@H]2O1)n1cnc2c(ncnc21)NCC/C=C/CNc1ncnc2c1ncn23` (single isomer, unassigned) [Compound 37], the EC50 in [2] (Table 5) was above 100 µM; in series [3] (setting [15]) it was 87.2 µM; in series [4] (setting [16]), 82.2 µM.
For the compound `O=[P@]1(S)OC[C@H]2O[C@@H]3[C@H](F)[C@@H]2O[P@](=O)(S)OC[C@H]2O[C@H]([C@H](F)[C@@H]2O1)n1cnc2c(ncnc21)NC/C=C/CNc1ncnc2c1ncn23` [Compound 1a], the “metabolites identified in hepatocyte incubations” value in series [5], in [6], in [8], in [9] and in series [11] was “No apparent metabolite” each time. The “anti-tumor effect on untreated tumors” value in [7] is recorded as “tumor growth inhibition activity”. Besides, in series [10], the “induction of primary human PBMC IFNβ protein production” value is listed as “dose-dependent manner”. Besides, the “induction of IFNβ mRNA in primary PBMC” value in series [12] is “dose- and time-dependent manner”.
Regarding `O=P1(O)OC[C@H]2O[C@@H]3[C@H](F)[C@@H]2OP(=O)(O)OC[C@H]2OC([C@H](F)[C@@H]2O1)n1cnc2c(ncnc21)NC/C=C/CNc1ncnc2c1ncn23` [Compound 9], the EC50 in series [1] worked out at 31.7 µM; in [2] (Table 5), 18 µM; in series [3] (setting [15]), 39.2 µM; in series [4] (setting [16]) it was 30.9 µM.
On to `O=[P@@]1(S)OC[C@H]2OC3[C@H](O)[C@@H]2O[P@](=O)(S)OC[C@H]2O[C@H]([C@H](O1)[C@@H]2O)n1cnc2c(ncnc21)NC/C=C/CNc1ncnc2c1ncn23` [Compound 14], for which the EC50 in series [1] (read-out: Human STING EC50 (μM) REF, Table 4, ammonium salt form of each compound) was above 100 µM; in series [2] (Table 4) it was 69.8 µM; in [3] (setting [13]), 58.2 µM; in series [4] (read-out: Human STING EC50 (μM) AQ, Table 4), above 100 µM.
In the case of `O=[P@@]1(S)OC[C@H]2OC3[C@H](F)[C@@H]2O[P@](=O)(S)OC[C@H]2O[C@H]([C@H](O1)[C@@H]2O)n1cnc2c(ncnc21)NC/C=C/CNc1ncnc2c1ncn23` [Compound 16], the EC50 in [1] was 66.7 µM; in series [2] (Table 4), 25.7 µM; in series [3] (setting [13]), 28.8 µM; in series [4] (setting [14]), 20.4 µM.
For `O=[P@]1(S)OC[C@H]2OC3[C@H](F)[C@@H]2O[P@](=O)(S)OC[C@H]2O[C@H]([C@H](F)[C@@H]2O1)n1cnc2c(ncnc21)NCCCCNc1ncnc2c1ncn23` [Compound 6], the EC50 in series [1] was 42 µM; in series [2] (Table 5), 5.7 µM; in series [3] (setting [15]), 10.5 µM; in series [4] (setting [16]), 9 µM.
With `O=P1(S)OC[C@H]2O[C@@H]3[C@H](F)[C@@H]2OP(=O)(S)OC[C@H]2OC([C@H](F)[C@@H]2O1)n1cnc2c(ncnc21)NCC/C=C/CNc1ncnc2c1ncn23` (single isomer, unassigned) [Compound 8], the half-maximal effective concentration (EC50) in series [1] was above 100 µM; in series [2] (Table 5) it was 68.7 µM; in series [3] (setting [15]), 69.7 µM; in series [4] (setting [16]), 81 µM.
For `Nc1nc2c3ncn(c3n1)[C@@H]1O[C@@H]3COP(O)(=S)O[C@H]4[C@@H](F)[C@@H](O[C@@H]4COP(O)(=S)O[C@H]3[C@H]1F)n1cnc3c(ncnc31)NC/C=C/CO2` (some centres unmarked) [Compound 23], the midpoint of the response in series [3] (hSTING EC50 (μM) HAQ), the EC50, lay at 62.3 µM.
Take `O=[P@]1(S)OC[C@H]2OC3[C@H](F)[C@@H]2O[P@](=O)(S)OC[C@H]2O[C@H]([C@H](F)[C@@H]2O1)n1cnc2c(ncnc21)NCC1NC1CNc1ncnc2c1ncn23` (single isomer, unassigned) [Compound 35]: the EC50 in [3] (setting [17]) stood at 44.5 µM.
For the compound `O=P1(S)OC[C@H]2O[C@@H]3[C@H](F)[C@@H]2OP(=O)(S)OC[C@H]2O[C@H]([C@H](F)[C@@H]2O1)n1cnc2c(ncnc21)NC/C=C/COc1ncnc2c1ncn23` (single isomer, unassigned) [Compound 18], in series [3] (setting [17]), the EC50 amounted to 2.3 µM.
For `O=[P@@]1(S)OC[C@H]2O[C@@H]3[C@H](F)[C@@H]2O[P@](=O)(S)OC[C@H]2OC([C@H](F)[C@@H]2O1)n1cnc2c(ncnc21)CC/C=C/CCc1ncnc2c1ncn23` [Compound 34], in series [3] (setting [17]), the EC50 was 2.3 µM.
Turning to `O=[P@]1(S)OC[C@H]2OC3[C@H](F)[C@@H]2O[P@](=O)(S)OC[C@H]2O[C@H]([C@H](F)[C@@H]2O1)n1cnc2c(ncnc21)NC[C@H](O)[C@@H](O)CNc1ncnc2c1ncn23` [Compound 32], the 50% effective concentration (EC50) is above 100 µM in series [1] (read-out: hSTING EC50 (μM) REF, Table 6, ammonium salt form, except Compounds 26, 33, 34 tested as bis-TEA salts) and 15.7 µM in series [3] (setting [17]).

What is called EC50 is the midpoint of the concentration-response curve.
